Activity calls are given as the source filed them. The calls are words filed in the database; no cut-off is given here.

The target of one data set is T1, Bile acid receptor (Homo sapiens, UniProt Q96RI1).
T1 sequence (Q96RI1 whole entry): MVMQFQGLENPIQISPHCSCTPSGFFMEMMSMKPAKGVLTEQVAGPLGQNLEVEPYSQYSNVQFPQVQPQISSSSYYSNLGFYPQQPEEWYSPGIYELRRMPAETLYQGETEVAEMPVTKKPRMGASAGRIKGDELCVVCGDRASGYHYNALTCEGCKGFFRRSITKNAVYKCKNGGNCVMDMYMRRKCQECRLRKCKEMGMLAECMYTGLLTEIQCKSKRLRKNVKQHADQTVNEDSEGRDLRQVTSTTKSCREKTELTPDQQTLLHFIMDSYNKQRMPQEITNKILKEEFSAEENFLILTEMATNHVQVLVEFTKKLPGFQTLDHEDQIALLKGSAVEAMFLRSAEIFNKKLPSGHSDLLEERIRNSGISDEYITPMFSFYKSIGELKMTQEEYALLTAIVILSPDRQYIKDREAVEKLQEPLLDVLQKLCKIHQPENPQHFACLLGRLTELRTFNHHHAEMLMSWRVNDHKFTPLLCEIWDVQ
The data set can be described thus: Agonist activity at FXR-LBD (unknown origin) using fluorescein-coactivator peptide incubated for 3 hrs by TR-FRET assay.

Data set [1] is described as follows: Metabolic stability in rhesus monkey liver microsomes assessed as parent compound remaining incubated for 1 hr by LC-MS analysis. The following applies: read-out: Stability. It is filed as ADME, Macaca mulatta, Microsome. Background: Liver microsomes are a subcellular fraction often used to study metabolism.
Data set [2] concerns the target T2, Peroxisome proliferator-activated receptor gamma (Homo sapiens, UniProt P37231).
T2 sequence (P37231 whole entry): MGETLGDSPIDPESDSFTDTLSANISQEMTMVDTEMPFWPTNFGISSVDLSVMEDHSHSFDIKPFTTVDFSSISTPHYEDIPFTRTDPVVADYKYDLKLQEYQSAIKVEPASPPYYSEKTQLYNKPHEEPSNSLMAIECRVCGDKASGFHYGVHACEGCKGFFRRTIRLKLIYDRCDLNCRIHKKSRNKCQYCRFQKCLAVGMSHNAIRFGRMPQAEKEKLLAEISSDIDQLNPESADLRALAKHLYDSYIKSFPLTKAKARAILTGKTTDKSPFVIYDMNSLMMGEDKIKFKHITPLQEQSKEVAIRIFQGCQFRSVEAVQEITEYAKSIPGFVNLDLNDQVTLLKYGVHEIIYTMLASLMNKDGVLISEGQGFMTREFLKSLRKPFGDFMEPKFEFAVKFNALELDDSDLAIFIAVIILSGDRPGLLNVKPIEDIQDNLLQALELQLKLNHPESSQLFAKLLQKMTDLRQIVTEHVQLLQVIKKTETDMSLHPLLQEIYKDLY
The data set can be described thus: Agonist activity at PPARgamma (unknown origin) transfected in HEK293 cells incubated for 18 hrs by renilla/firefly based dual-glo luciferase assay. In kind it is cell-based.

In another data set the target is Vitamin D3 receptor (Homo sapiens, UniProt P11473). Briefly: Activation of VP16-fused VDR-LBD (unknown origin) incubated for 18 hrs in presence of substrate by luciferase assay.
Vitamin D3 receptor, sequence (P11473 whole entry, the tested form may be a part): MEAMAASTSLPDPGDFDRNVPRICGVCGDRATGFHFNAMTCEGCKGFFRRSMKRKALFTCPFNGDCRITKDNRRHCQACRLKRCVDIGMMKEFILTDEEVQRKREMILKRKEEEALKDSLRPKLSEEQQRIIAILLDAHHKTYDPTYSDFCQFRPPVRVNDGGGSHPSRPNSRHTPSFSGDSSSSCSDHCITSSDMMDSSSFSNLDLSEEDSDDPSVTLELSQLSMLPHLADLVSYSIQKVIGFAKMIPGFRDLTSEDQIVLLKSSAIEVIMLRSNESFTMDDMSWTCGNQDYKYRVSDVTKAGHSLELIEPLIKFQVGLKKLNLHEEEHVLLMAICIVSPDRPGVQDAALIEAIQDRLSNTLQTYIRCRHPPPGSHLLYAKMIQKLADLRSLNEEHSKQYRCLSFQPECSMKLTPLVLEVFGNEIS
Another data set deals with Estrogen receptor beta (Homo sapiens, UniProt Q92731). Briefly: Activation of Gal-DBD and NHRLBD fused ERbeta (unknown origin) transfected in African green monkey CV-1 cells by luciferase reporter assay. In kind it is cell-based.
Estrogen receptor beta, sequence (Q92731 whole entry, the tested form may be a part): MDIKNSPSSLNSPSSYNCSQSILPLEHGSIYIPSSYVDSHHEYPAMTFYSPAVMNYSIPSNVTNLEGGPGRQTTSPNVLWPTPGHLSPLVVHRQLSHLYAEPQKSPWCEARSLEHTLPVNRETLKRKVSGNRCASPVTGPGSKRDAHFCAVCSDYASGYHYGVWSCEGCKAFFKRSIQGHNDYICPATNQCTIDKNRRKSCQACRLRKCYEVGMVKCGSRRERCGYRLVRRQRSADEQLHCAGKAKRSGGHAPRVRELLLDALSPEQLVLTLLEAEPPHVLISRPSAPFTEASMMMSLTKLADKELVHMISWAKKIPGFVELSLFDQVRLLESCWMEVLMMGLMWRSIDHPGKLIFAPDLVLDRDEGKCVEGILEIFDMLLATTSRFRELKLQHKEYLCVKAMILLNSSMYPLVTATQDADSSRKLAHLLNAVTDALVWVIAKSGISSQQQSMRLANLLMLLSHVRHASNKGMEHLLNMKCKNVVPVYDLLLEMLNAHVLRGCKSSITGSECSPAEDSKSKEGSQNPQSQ
The target in a further data set is Androgen receptor (Homo sapiens, UniProt P10275). The data set can be described thus: Activation of Gal-DBD and NHRLBD fused AR (unknown origin) transfected in African green monkey CV-1 cells by luciferase reporter assay. In kind it is cell-based.
Androgen receptor, sequence (P10275 whole entry, the tested form may be a part): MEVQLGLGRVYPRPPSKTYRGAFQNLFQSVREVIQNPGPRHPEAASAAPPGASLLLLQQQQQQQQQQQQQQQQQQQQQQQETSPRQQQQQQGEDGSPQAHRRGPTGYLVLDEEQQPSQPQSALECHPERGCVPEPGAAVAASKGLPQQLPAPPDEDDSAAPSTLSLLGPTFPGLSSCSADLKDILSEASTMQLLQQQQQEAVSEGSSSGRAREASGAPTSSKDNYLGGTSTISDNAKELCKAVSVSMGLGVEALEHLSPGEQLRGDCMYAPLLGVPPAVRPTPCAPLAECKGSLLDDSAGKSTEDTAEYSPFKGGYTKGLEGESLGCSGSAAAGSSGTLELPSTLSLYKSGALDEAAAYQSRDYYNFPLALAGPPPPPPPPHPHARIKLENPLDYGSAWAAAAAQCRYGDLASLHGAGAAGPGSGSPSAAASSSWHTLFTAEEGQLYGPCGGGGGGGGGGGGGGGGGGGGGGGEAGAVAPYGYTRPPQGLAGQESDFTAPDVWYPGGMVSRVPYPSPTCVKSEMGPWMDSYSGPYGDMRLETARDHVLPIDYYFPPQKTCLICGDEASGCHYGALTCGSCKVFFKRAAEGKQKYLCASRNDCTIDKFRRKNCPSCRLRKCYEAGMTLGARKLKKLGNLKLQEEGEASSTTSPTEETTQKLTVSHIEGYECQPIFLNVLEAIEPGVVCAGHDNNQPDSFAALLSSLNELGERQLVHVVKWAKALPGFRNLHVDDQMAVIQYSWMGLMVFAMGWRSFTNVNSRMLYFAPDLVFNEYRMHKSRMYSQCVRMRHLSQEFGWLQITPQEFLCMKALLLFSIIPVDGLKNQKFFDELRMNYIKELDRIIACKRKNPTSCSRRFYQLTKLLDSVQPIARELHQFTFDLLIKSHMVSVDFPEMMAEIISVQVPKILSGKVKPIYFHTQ
The target in data set [3] is T3, Peroxisome proliferator-activated receptor alpha (Homo sapiens, UniProt Q07869).
T3 sequence (Q07869 whole entry): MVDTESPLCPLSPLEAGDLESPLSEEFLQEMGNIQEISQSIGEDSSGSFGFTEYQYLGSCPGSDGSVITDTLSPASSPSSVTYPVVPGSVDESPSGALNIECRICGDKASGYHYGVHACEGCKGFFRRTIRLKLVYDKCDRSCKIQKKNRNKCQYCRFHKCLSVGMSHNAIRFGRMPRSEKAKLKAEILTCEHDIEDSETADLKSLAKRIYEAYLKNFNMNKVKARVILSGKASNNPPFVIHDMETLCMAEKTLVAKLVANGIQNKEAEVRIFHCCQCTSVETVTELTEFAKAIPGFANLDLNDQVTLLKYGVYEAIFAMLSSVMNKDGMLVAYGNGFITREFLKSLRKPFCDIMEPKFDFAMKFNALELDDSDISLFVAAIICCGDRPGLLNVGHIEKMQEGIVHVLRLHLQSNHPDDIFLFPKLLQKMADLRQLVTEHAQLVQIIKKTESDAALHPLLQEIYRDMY
The data set can be described thus: Inhibition of pBIND-PPARalpha (unknown origin) transfected in HepG2 cells incubated for 18 hrs in presence of […] by dual luciferase reporter assay. In kind it is cell-based. In general terms: Reporter assays use an easily measured gene product as a stand-in for the process of interest.

Data set [4] can be described thus: Drug concentration in C57BL/6 mouse ileum at 20 mg/kg, po administered for 5 days and measured after 1 hr post final dose by LC-MS analysis. In kind it is ADME, organism-based. The following applies: time 5 day, read-out: Ct.
The target of data set [5] is T4, Bile acid receptor (Mus musculus) (UniProt Q60641).
T4 sequence (whole entry): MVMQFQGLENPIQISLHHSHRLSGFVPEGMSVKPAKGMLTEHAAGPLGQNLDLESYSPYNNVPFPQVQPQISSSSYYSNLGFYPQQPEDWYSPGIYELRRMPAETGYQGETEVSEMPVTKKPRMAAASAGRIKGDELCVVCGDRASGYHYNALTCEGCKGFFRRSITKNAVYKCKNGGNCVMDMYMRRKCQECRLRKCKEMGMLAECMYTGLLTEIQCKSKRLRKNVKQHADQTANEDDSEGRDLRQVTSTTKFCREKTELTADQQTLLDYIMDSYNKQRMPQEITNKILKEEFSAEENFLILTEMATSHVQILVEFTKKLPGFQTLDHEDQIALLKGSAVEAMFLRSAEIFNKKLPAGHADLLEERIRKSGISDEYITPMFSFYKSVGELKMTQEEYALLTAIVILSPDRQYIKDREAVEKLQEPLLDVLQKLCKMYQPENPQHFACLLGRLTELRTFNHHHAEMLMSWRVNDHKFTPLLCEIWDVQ
The data set can be described thus: Activation of FXR in C57BL/6 mouse ileum assessed as upregulation of SHP gene expression at 20 mg/kg, po administered for 5 days and measured after 1 hr post final dose by RT-PCR analysis. In kind it is organism-based. The following applies: filed as activator, time 5.0 day.

For the next data set, the system named is Mus musculus. Briefly: In vivo inhibition of FABP1 in western diet and CCl4-induced nonalcoholic steatohepatitis C57BL/6 mouse assessed as reduction in NEFA uptake in fecal at 20 mg/kg, po administered for 12 weeks starting from week 8 and change in dose for every 5 days. In kind it is functional, organism-based. The following applies: time 4.0 weeks.
The nature of data set [6]: Subacute toxicity in ICR mouse assessed as animal death at 500 mg/kg/day, po administered for 14 days. In kind it is organism-based. The following applies: in vivo, 336 h, time 14 day.
The nature of data set [7]: Subacute toxicity in ICR mouse assessed as abnormal behaviour at 500 mg/kg/day, po administered for 14 days. Conditions: in vivo, 336 h, time 14 day. In kind it is organism-based.
Data set [8] is described as follows: Subacute toxicity in ICR mouse assessed as reduction in serum ALP level at 500 mg/kg/day, po administered for 14 days. It is filed as organism-based. The following applies: in vivo, 336 h, time 14 day.
Data set [9] can be described thus: Subacute toxicity in ICR mouse assessed as reduction in serum TBIL level at 500 mg/kg/day, po administered for 14 days. In kind it is organism-based. Conditions: in vivo, 336 h, time 14 day.

Turning to `O=C(O)C1(c2cccc(-c3ccc(OCc4c(-c5c(Cl)cccc5Cl)noc4C4CC4)cc3)c2)CC1`, the EC50 on Bile acid receptor was 0.143 µM; in [2] it was greater than 10 µM; on Vitamin D3 receptor, greater than 10 µM; at Estrogen receptor beta it was greater than 10 µM; at Androgen receptor it was greater than 10 µM. For the same compound, in [1], the remaining at 1 h is 71%. Also, the IC50 in data set [3] is greater than 10 µM. Besides, in [4], the concentration at 120 h is 996 ng/g. Also, the result (in [5]; in the data set with Mus musculus) was Active. For the same compound, the Activity entry in data set [6], in [7], in data set [8] and in data set [9] was “Non-Toxic” throughout.

A word on the EC50: it is the concentration giving half of the maximal effect. In general, IC50 refers to the concentration that gives 50% inhibition.

The record behind these values is ChEMBL document CHEMBL5338751, “Discovery of the First-in-Class Intestinal Restricted FXR and FABP1 Dual Modulator ZLY28 for the Treatment of Nonalcoholic Fatty Liver Disease” (J Med Chem, 2023).
